Here are results for 4 substances from article PMC4785407, “Reduction Impairs the Antibacterial Activity but Benefits the LPS Neutralization Ability of Human Enteric Defensin 5” (Scientific Reports, 2016).

Ends that are not written are not given here.

The conditions of data set [1]: flexible N-terminus; cited from earlier work. From the text:
Changes in function follow changes in structure.

The test system of a further data set is bacteria. The following applies: cited from earlier work. From the text: Oxidized human defensin 5 (HD5OX), a 32-residue α defensin, is stored in the secretory granules of Paneth cells in the small intestine as a propeptide (E20-R94) and is processed by anionic and/or meso isoforms of trypsin during secretion or shortly thereafter at a cleavage site between R62 and A63[6]. […] We have previously prepared bioactive HD5OX using Pichia pastoris and design ... || HD5OX is an endogenous bactericidal agent.

Data set [2] concerns LPS-binding protein (LBP); LPS-stimulated macrophages. Particulars: cited from earlier work. From the text: Human defensins are also noted for their immunoregulatory properties. […] Additionally, some defensins are able to suppress the pro-inflammatory effect of bacterial lipopolysaccharide (LPS). For example, H ...
Data set [3] has as its system interaction between LPS and LBP (mouse LBP). Put plainly: LPS-binding protein (LBP) block assay. In kind it is biochemical. Particulars: 200 ng/mL, positive control; mouse LBP 60 ng/mL, biotinylated LPS 50 ng/mL. How it is done:
The effects of peptides on the interaction between LPS and low concentrations of LBP were determined as previously described. Briefly, the plates of a LBP ELISA kit (Boster EK1274) were blocked by the incubation of 1% BSA prepared in 10 mM sodium phosphate buffer (pH 7.4) at 37 °C for 1 h, which were subsequently washed with 0.1% Tween-20. Aliquots of 100 μL of mouse LBP (Sigma SRP6034, 60 ng/mL) were added and incubated at 37 °C for 1.5 h. Peptides were prepared in sterile water, with concentrations of 12.5, 25, and 50 μg/mL, respectively. Biotinylated LPS (50 ng/mL) was added in the absence or presence of peptides (pre-incubated at 37 °C for 30 min). Polymyxin B (200 ng/mL) was used as a positive control. The binding of LPS to LBP was determined using a chromogenic reaction between HRP-conjugated streptavidin (Boster BA1088) and TMB (Sigma 860336). Data were processed by subtracting the absorbance in the absence of LPS. Statistical significance was determined by the Student−Newman−Keuls multiple comparisons test.
Figure 5. The efficiencies of peptides in blocking the interaction between LPS and LBP. A LBP ELISA plate was blocked by 1% BSA and subsequently washed with 0.1% Tween-20. Aliquots of 100 μL of the mouse LBP (60 ng/mL) was added and incubated at 37°C for 1.5 h. Peptides were prepared in sterile water, with concentrations of 12.5, 25, and 50 μg/mL, respectively. Biotinylated LPS (50 ng/mL) was then added in the absence or presence of peptides (pre-incubated at 37°C for 30 min). Data were processed by subtracting the absorbance in the absence of biotinylated LPS. Statistical significance was determined by the Student−Newman−Keuls multiple comparisons test. n.s, not significant; **, p < 0.01, relative to the value of the group solely treated with LPS.

As for “HBD3: human β defensin cited from the literature (GIINTLQKYYCRVRGGRCAVLSCLPKEEQIGKCSTRGRKCCRRKK; ends and bridges not checked; cysteine pairing not given here; UniProt P81534 23-67, looked up)”, the “conformation in SDS micelles” value in data set [1] is “adopts a α-helical-containing structure”. Moreover, the “function without disulfide bonds” value with bacteria is “can function well without disulfide bonds”.
With “HNP1: human neutrophil peptide cited from the literature”, the “interaction between LPS and low concentrations of LBP; TNF-α production” value in data set [2] was “can block the interaction between LPS and low concentrations of LPS-binding protein”. Also, the “antibacterial property on loss of disulfide bonds” value in the data set on bacteria is on record as “loss of disulfide bonds attenuates the antibacterial property”.
On to Polymyxin B [PB, reference compound], for which, in data set [3], the “effect on the interaction between LPS and LBP” value is listed as “significantly inhibited the LPS-LBP interaction”.
As for “human β defensin (HBD) 1 (DHYNCVSSGGQCLYSACPIFTKIQGTCYRGKAKCCK; ends and bridges not checked; cysteine pairing not given here; UniProt P60022 33-68, looked up) [HBD1, ubiquitously expressed peptide in human epithelia]”, the “interaction between LPS and low concentrations of LBP; TNF-α production” value in data set [2] was “can block the interaction between LPS and low concentrations of LPS-binding protein”. Further, the “antibacterial activity upon reduction” value in the data set with bacteria (disulfide reduction) is given as “enhanced upon reduction”.
